These results are taken from the C3SDB collision cross section collection.

Values joined by “and” are separate entries in the source; they are usually repeats but may differ in a detail not shown here. Equal values may be shown once.

The conditions of this data set: instrument: TW, calibrated with polyalanine and drug standards.

For the compound `CN1CCN(C2=c3ccccc3=Nc3ccc(Cl)cc3N2)CC1` [CLOZAPINE], the “collision cross section (N2)” value ([M+H]+) is recorded as 177.5 Å².

`COc1cc2c(c(OC)c1OC)-c1ccc(OC)c(=O)cc1[C@@H](NC(C)=O)CC2` [COLCHICINE]: the “collision cross section (N2)” value ([M+H]+) turned out to be 194.5 Å².

Regarding `CC(=O)OCC(=O)[C@@]1(O)CC[C@H]2[C@@H]3CCC4=CC(=O)CC[C@]4(C)[C@H]3C(=O)C[C@@]21C` [CORTISONE ACETATE], under “[M+H]+”, the “collision cross section (N2)” value was found to be 196.5 Å².

For `O=c1ccc2ccccc2o1` [COUMARIN], the “collision cross section (N2)” value ([M+H]+) was 122.2 Å².

As for `C/C=C/C(=O)N(CC)c1ccccc1C` [CROTAMITON], for the setting “[M+H]+”, the “collision cross section (N2)” value was found to be 145.1 Å².

For the compound `CC(C)(O)CC[C@@H](O)[C@](C)(O)[C@H]1CC[C@@]2(O)C3=CC(=O)[C@@H]4C[C@@H](O)[C@@H](O)C[C@]4(C)[C@H]3CC[C@]12C` [CRUSTECDYSONE], the “collision cross section (N2)” value ([M+H]+) is on record as 221.3 Å².

As to `COc1cc(/C=C/C(=O)CC(=O)/C=C/c2ccc(O)c(OC)c2)ccc1O` [CURCUMIN], the “collision cross section (N2)” value ([M+H]+) turned out to be 198.5 Å².

For `CC1CC(OC(=O)C(O)c2ccccc2)CC(C)(C)C1` (stereo not given) [CYCLANDELATE], the “collision cross section (N2)” value ([M+Na]+) is 186.2 Å².

As to `CN1CCN(C(c2ccccc2)c2ccccc2)CC1` [CYCLIZINE], the “collision cross section (N2)” value ([M+H]+) was found to be 164.8 Å².

For `NC1=NCCN1CC(=O)O` [CYCLOCREATINE], the “collision cross section (N2)” value ([M+H]+) came out at 124.3 Å².

As for `CC(=O)O[C@]1(C(C)=O)CC[C@H]2[C@@H]3C=C(Cl)C4=CC(=O)[C@@H]5C[C@@H]5[C@]4(C)[C@H]3CC[C@@]21C` [CYPROTERONE ACETATE], the “collision cross section (N2)” value ([M+H]+) was found to be 199.4 Å².

As for `Nc1ccn([C@@H]2O[C@H](CO)[C@@H](O)[C@@H]2O)c(=O)n1` [CYTARABINE], the “collision cross section (N2)” value ([M+H]+) is given as 150.5 Å².

On to `O=c1cccc2n1C[C@@H]1CNC[C@H]2C1` [CYTISINE], for which the “collision cross section (N2)” value ([M+H]+) is reported as 137.9 Å².

`COc1cccc2c1C(=O)c1c(O)c3c(c(O)c1C2=O)C[C@@](O)(C(C)=O)C[C@@H]3O[C@H]1C[C@H](N)[C@H](O)[C@H](C)O1` [DAUNORUBICIN]: the “collision cross section (N2)” value ([M+H]+) came out at 222.9 Å².

On to `CC(=O)O[C@H]1C[C@@H](OC(C)=O)C(C)(C)C2CC(=O)[C@]3(C)C(CC[C@@]4(C)[C@H](C(=O)O)OC(=O)C5OC543)[C@]21C` (stereo not given in full) [DEACETOXY(7)-7-OXOKHIVORINIC ACID], for which the “collision cross section (N2)” value ([M+H]+) came to 212.6 Å².

Turning to `COc1cc2c(cc1OC)-c1c(oc3c4c(ccc3c1=O)OC(C(C)C)C4)CO2` (stereo not given) [DEHYDRODIHYDROROTENONE], the “collision cross section (N2)” value ([M+H]+) was 194.6 Å².

Take `COc1ccc2c(c1)OCc1c-2oc2cc(OC)ccc12` [DEHYDROVARIABILIN]: the “collision cross section (N2)” value ([M+H]+) is 159 Å².

Turning to `COc1ccc2c(c1)OCC(Cc1ccc(O)c(OC)c1)C2=O` (stereo not given) [DEOXYSAPPANONE B 7,3'-DIMETHYL ETHER], the “collision cross section (N2)” value ([M+H]+) is given as 171.2 Å².

As for `COc1ccc2c(c1)OCC(Cc1ccc(OC)c(O)c1)C2=O` (stereo not given) [DEOXYSAPPANONE B 7,4'-DIMETHYL ETHER], the “collision cross section (N2)” value ([M+H]+) amounted to 170.6 Å².

With `COc1ccc(-c2cc(C(F)F)nn2-c2ccc(S(N)(=O)=O)cc2)cc1F` [DERACOXIB], under “[M+H]+”, the “collision cross section (N2)” value is listed as 189.9 Å².

For `COc1cc(OC)c2c(OC)c(-c3ccc4c(c3)OCO4)c(=O)oc2c1` [DERRUSNIN], where the note is “[M+H]+”, the “collision cross section (N2)” value was 176.7 Å².

In the case of `C=C[C@@]1(C)CC(=O)[C@@]2(O)[C@](C)(O1)[C@@H](O)[C@@H](O)C1C(C)(C)CC[C@H](O)[C@@]12C` (stereo not given in full) [DESACETYLCOLFORSIN], the “collision cross section (N2)” value ([M+Na]+) is given as 185.6 Å².

`CC1(C)O[C@@H]2C[C@H]3[C@@H]4CCC5=CC(=O)C=C[C@]5(C)[C@H]4[C@@H](O)C[C@]3(C)[C@]2(C(=O)CO)O1` [DESONIDE]: where the note is “[M+H]+”, the “collision cross section (N2)” value was 198.5 Å².

As for `CC(=O)OCC(=O)[C@H]1CC[C@H]2[C@@H]3CCC4=CC(=O)CC[C@]4(C)[C@H]3CC[C@]12C` [DESOXYCORTICOSTERONE ACETATE], the “collision cross section (N2)” value ([M+H]+) is recorded as 193.8 Å².

Consider `CC1CC2C3CCC4=CC(=O)C=CC4(C)C3(F)C(O)CC2(C)C1C(=O)CO` (stereo not given) [DESOXYMETASONE], for which the “collision cross section (N2)” value ([M+H]+) came out at 186.4 Å².

Take `C=CCSSSCC=C` [DIALLYL TRISULFIDE]: the “collision cross section (N2)” value ([M+H]+) was 126.9 Å².

Consider `COP(=O)(OC)OC=C(Cl)Cl` [DICHLORVOS], for which the “collision cross section (N2)” value ([M+H]+) stood at 138.7 Å².

Regarding `CCCc1cc(OC)c2c(c1)OCO2` [DIHYDROMYRISTICIN], the “collision cross section (N2)” value ([M+H]+) is listed as 128.7 Å².

`Cc1cccc2c3c(ccc12)C1=C(C(=O)C3=O)[C@@H](C)CO1` [DIHYDROTANSHINONE I]: the “collision cross section (N2)” value ([M+H]+) is 159.4 Å².

For `CN(C(=O)C(Cl)Cl)c1ccc(OC(=O)c2ccco2)cc1` [DILOXANIDE FUROATE], the “collision cross section (N2)” value ([M+H]+) is recorded as 171.7 Å².

Take `COC(=O)NC(=S)Nc1ccccc1NC(=S)NC(=O)OC` [DIMETHYL 4,4-o-PHENYLENE-BIS (3-THIOPHANATE)]: the “collision cross section (N2)” value ([M+H]+) amounted to 173.3 Å².

As for `COc1ccc(C(=O)c2ccccc2O)c(O)c1` [DIOXYBENZONE], the “collision cross section (N2)” value ([M+H]+) is given as 150 Å².

As for `OCCN(CCO)c1nc(N2CCCCC2)c2nc(N(CCO)CCO)nc(N3CCCCC3)c2n1` [DIPYRIDAMOLE], the “collision cross section (N2)” value ([M+H]+) is 223.9 Å².

In the case of `CC(=O)Oc1cccc(C(=O)O)c1OC(C)=O` [DIPYROCETYL], the “collision cross section (N2)” value ([M+Na]+) is listed as 150 Å².

With `CCN(CC)C(=S)SSC(=S)N(CC)CC` [DISULFIRAM], the “collision cross section (N2)” value ([M+H]+) was 165.5 Å².

As for `COc1ccc2c(c1OC)OC[C@@H](c1ccc(OC)c(OC)c1OC)C2` [DUARTIN, DIMETHYL ETHER], the “collision cross section (N2)” value ([M+Na]+) is given as 183.2 Å².

Consider `CCn1cc(C(=O)O)c(=O)c2cc(F)c(N3CCNCC3)nc21` [ENOXACIN], for which, under “[M+H]+”, the “collision cross section (N2)” value is 168.1 Å² and 184.7 Å².

Regarding `CCN1CCN(c2cc3c(cc2F)c(=O)c(C(=O)O)cn3C2CC2)CC1` [ENROFLOXACIN], under “[M+H]+”, the “collision cross section (N2)” value was 190.6 Å².

On to `CCC(C)C(=O)O[C@@H]1C[C@@]2(C)[C@H](c3ccoc3)OC(=O)CC23OC2(C)OC34[C@H](OC(=O)C(C)C)[C@@]3(O)[C@@H](OC(=O)C5(C)OC5C)[C@@]5(C)C[C@]3(O)[C@@](C)([C@H]5CC(=O)OC)C14O2` (stereo not given in full) [ENTANDROPHRAGMIN], for which the “collision cross section (N2)” value ([M+H]+) is reported as 259.8 Å².

Turning to `O=C(O[C@@H]1Cc2c(O)cc(O)cc2O[C@@H]1c1ccc(O)c(O)c1)c1cc(O)c(O)c(O)c1` [EPICATECHIN MONOGALLATE], the “collision cross section (N2)” value ([M+H]+) is recorded as 202.9 Å².

Consider `CCN(CC)C(=O)c1ccc(O)c(OC)c1` [ETHAMIVAN], for which the “collision cross section (N2)” value ([M+H]+) came to 149 Å².

As to `CCc1cc(C(N)=S)ccn1` [ETHIONAMIDE], the “collision cross section (N2)” value ([M+H]+) is listed as 135.8 Å².

Take `CCOc1ccc2c(c1)C(C)=CC(C)(C)N2` [ETHOXYQUIN]: the “collision cross section (N2)” value ([M+H]+) was found to be 152.6 Å².

In the case of `CCOC(=O)c1ccc(O)cc1` [ETHYL PARABEN], under “[M+H]+”, the “collision cross section (N2)” value was 125.4 Å².

As to `CCOC(=O)c1cncn1C(C)c1ccccc1` (stereo not given) [ETOMIDATE], the “collision cross section (N2)” value ([M+H]+) is recorded as 155.9 Å².

As to `CC(=O)OCC(CCn1cnc2cnc(N)nc21)COC(C)=O` [FAMCICLOVIR], the “collision cross section (N2)” value ([M+H]+) was determined as 168.4 Å².

In the case of `Cc1nc(-c2ccc(OCC(C)C)c(C#N)c2)sc1C(=O)O` [FEBUXOSTAT], the “collision cross section (N2)” value ([M+H]+) amounted to 180.6 Å².

In the case of `COC(=O)Nc1nc2ccc(Sc3ccccc3)cc2[nH]1` [FENBENDAZOLE], the “collision cross section (N2)” value ([M+H]+) is 170.8 Å².

Consider `CCC(C(N)=O)c1ccccc1` (stereo not given) [FENBUTYRAMIDE], for which, under “[M+H]+”, the “collision cross section (N2)” value was 135.8 Å².

As for `CC1(C)OC(=O)C(OCC2CC2)=C1c1ccc(S(C)(=O)=O)cc1` [FIROCOXIB], where the note is “[M+H]+”, the “collision cross section (N2)” value is 181.1 Å².

For `COC(=O)C[C@H]1C(C)(C)[C@H](OC(C)=O)[C@@H]2CC3=C4CC(=O)O[C@@H](c5ccoc5)[C@]4(C)CC[C@@H]3C1(C)C2=O` [FISSINOLIDE], for the setting “[M+H]+”, the “collision cross section (N2)” value came out at 213.3 Å².

`OC(Cn1cncn1)(Cn1cncn1)c1ccc(F)cc1F` [FLUCONAZOLE]: the “collision cross section (N2)” value ([M+H]+) amounted to 163.4 Å².

In the case of `Nc1[nH]c(=O)ncc1F` [FLUCYTOSINE], for the setting “[M+H]+”, the “collision cross section (N2)” value was determined as 118.4 Å².

Regarding `COc1ccc(-c2coc3cc(O)ccc3c2=O)cc1` [FORMONONETIN], the “collision cross section (N2)” value ([M+H]+) is recorded as 156.8 Å².

On to `CCOC(=O)c1ncn2c1CN(C)C(=O)c1cc(F)ccc1-2` [FUMAZENIL], for which, for the setting “[M+H]+”, the “collision cross section (N2)” value is on record as 165.6 Å².

For `O=C1OCCN1/N=C/c1ccc([N+](=O)[O-])o1` [FURAZOLIDONE], the “collision cross section (N2)” value ([M]+) is 144.2 Å².

On to `NS(=O)(=O)c1cc(C(=O)O)c(NCc2ccco2)cc1Cl` [FUROSEMIDE], for which the “collision cross section (N2)” value ([M+H]+) was determined as 169.3 Å².

In the case of `CC(C)=CCC[C@]1(C)C=Cc2c(O)c3c(c(CC=C(C)C)c2O1)O[C@]12C(=C[C@@H]4C[C@H]1C(C)(C)O[C@@]2(C/C=C(/C)C(=O)O)C4=O)C3=O` [GAMBOGIC ACID], the “collision cross section (N2)” value ([M+H]+) worked out at 239 Å².

Take `N[C@@H](CCC(=O)N[C@@H](CS)C(=O)NCC(=O)O)C(=O)O` [GLUTATHIONE]: the “collision cross section (N2)” value ([M+H]+) was found to be 165.7 Å².

On to `C[C@H](CCC(=O)NCC(=O)O)[C@H]1CC[C@H]2[C@@H]3[C@H](O)C[C@@H]4C[C@H](O)CC[C@]4(C)[C@H]3C[C@H](O)[C@]12C` [GLYCOCHOLIC ACID], for which the “collision cross section (N2)” value runs as follows: ([M+H]+) 205.2 Å²; ([M+Na]+) 200.8 Å².

Take `O=c1c(O)c(-c2ccc(O)c(O)c2)oc2c(O)c(O)cc(O)c12` [GOSSYPETIN]: the “collision cross section (N2)” value ([M+H]+) is 165.9 Å².

In the case of `O=c1c(O)c(-c2ccc(O)c(O)c2)oc2c(O[C@@H]3O[C@H](CO)[C@@H](O)[C@H](O)[C@H]3O)c(O)cc(O)c12` [GOSSYPIN], the “collision cross section (N2)” value ([M+H]+) amounted to 199.6 Å².

For `CN(C)Cc1c[nH]c2ccccc12` [GRAMINE], for the setting “[M+H]+”, the “collision cross section (N2)” value came out at 134.9 Å².

Consider `COC1=CC(=O)C[C@@H](C)[C@]12Oc1c(Cl)c(OC)cc(OC)c1C2=O` [GRISEOFULVIN], for which the “collision cross section (N2)” value ([M+H]+) came to 178.6 Å².
